Assay results published in ChEMBL document CHEMBL5260799, “Pterocarpan scaffold: A natural lead molecule with diverse pharmacological properties” (Eur J Med Chem, 2017).
Values after ≈ are worked out from the molar mass of the structure shown.

Columns and labels:
MCF7 [1] = assay: Antiproliferative activity against human MCF7 cells assessed as inhibition of cell proliferation incubated for 72 hrs by MTT assay; assay type: functional, cell-based; details: MCF7, 72 h
[2] = Cytotoxicity activity against human Lucena 1 cells assessed as reduction in cell viability […] measured after 72 hrs by MTT assay; assay type: functional, cell-based; details: Lucena 1, 72 h
K562 [3] = assay: Cytotoxicity activity against human K562 cells assessed as reduction in cell viability […] measured after 72 hrs by MTT assay; assay type: functional, cell-based; details: K562, 72 h
BMDC = assay: Anti-inflammatory activity against LPS-induced C57BL/6 mouse BMDC cells assessed as inhibition of IL-12 production at 25 uM by ELISA method; assay type: functional; parameters: scale not given: the % may be the effect or the level left
[4] = Antiproliferative activity against human PBMC cells assessed as reduction in cell viability at 10 microg/ml measured after 72 hrs by MTT assay; assay type: toxicity, cell-based; details: at 10 µg/mL
K562 [5] = assay: Antiproliferative activity against human K562 cells assessed as reduction in cell proliferation measured after 36 hrs by MTT assay; assay type: functional, cell-based; details: K562, 36 h
Jurkat = assay: Antiproliferative activity against human Jurkat cells assessed as reduction in cell proliferation measured after 24 hrs by MTT assay; assay type: functional, cell-based
HL-60 [6] = assay: Antiproliferative activity against human HL-60 cells assessed as reduction in cell viability at 2.5 ug/ml by tryphan blue staining assay; assay type: functional; details: dose 2.5 µg/ml
MOLT-4 = assay: Antiproliferative activity against human MOLT-4 cells assessed as reduction in cell proliferation measured after 24 hrs by MTT assay; assay type: functional, cell-based; details: MOLT-4, 24 h
HL-60 [7] = assay: Antiproliferative activity against human HL-60 cells assessed as reduction in cell proliferation measured after 36 hrs by MTT assay; assay type: functional, cell-based; details: HL-60, 36 h
MCF7 [8] = assay: Antiproliferative activity against human MCF7 cells assessed as growth inhibition measured after 48 hrs by CellTiter-Blue assay; assay type: functional, cell-based; details: MCF7, 48 h
HL-60 [9] = assay: Antiproliferative activity against human HL-60 cells assessed as reduction in cell viability at 1.25 ug/ml by tryphan blue staining assay; assay type: functional; details: dose 1.25 µg/ml
Staphylococcus aureus [10] = assay: Antibacterial activity against Staphylococcus aureus ATCC 25923 assessed as bacterial growth inhibition by broth dilution method; assay type: functional, organism-based
Staphylococcus aureus [11] = assay: Antibacterial activity against methicillin-resistant Staphylococcus aureus ATCC 25923 assessed as bacterial growth inhibition by broth dilution method; assay type: functional, organism-based
HL-60 [12] = assay: Antiproliferative activity against human HL-60 cells assessed as reduction in cell viability at 12.5 ug/ml by tryphan blue staining assay; assay type: functional; details: dose 12.5 µg/ml
[13] = Antioxidant activity assessed as DPPH radical scavenging activity incubated for 20 mins by spectrometry method; assay type: functional
[14] = Inhibition of melanin in human melanocyte; assay type: functional, cell-based
[15] = Cytotoxicity against mouse N9 cells assessed as reduction in cell viability incubated for 48 hrs by MTT assay; assay type: toxicity, cell-based
[16] = Cytotoxicity against mouse RAW264.7 cells assessed as increase in NO production measured after 48 hrs by MTT assay; assay type: toxicity, cell-based
Plasmodium falciparum [17] = assay: Antiplasmodial activity against Plasmodium falciparum D6 assessed as reduction in plasmodial growth after 48 hrs by fluorescence based analysis; assay type: functional, organism-based; details: D6, 48 h
A549 = assay: Cytotoxicity against human A549 cells assessed as reduction in cell viability by SRB assay; assay type: functional, cell-based
[18] = target: Prostaglandin G/H synthase 1 (Homo sapiens, UniProt P23219); assay: Inhibition of COX-1 (unknown origin)
Sequence of Prostaglandin G/H synthase 1 (P23219 whole entry): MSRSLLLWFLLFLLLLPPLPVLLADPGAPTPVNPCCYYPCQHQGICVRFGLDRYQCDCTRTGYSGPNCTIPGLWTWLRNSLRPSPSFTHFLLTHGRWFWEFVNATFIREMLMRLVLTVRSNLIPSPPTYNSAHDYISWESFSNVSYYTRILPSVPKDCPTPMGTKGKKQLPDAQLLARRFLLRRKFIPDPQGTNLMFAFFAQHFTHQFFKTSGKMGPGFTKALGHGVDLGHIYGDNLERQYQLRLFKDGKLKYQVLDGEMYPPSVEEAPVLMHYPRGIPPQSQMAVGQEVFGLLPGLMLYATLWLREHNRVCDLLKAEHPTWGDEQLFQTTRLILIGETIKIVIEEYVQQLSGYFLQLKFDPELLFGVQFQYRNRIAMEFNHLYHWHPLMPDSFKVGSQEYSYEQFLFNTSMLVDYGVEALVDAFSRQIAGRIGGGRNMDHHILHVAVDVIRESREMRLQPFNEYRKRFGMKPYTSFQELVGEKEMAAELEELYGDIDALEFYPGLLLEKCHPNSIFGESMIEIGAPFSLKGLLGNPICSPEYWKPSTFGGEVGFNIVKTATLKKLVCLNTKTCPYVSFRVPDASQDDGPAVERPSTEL

[19] = Antiinflammatory activity against mouse primary bone marrow derived macrophages assessed as inhibition of COX-2 at 100 ug/ml; assay type: functional, BMDM; parameters: scale not given: the % may be the effect or the level left; details: dose 100 µg/ml
HeLa = assay: Cytotoxicity against human HeLa cells assessed as reduction in cell viability by MTT assay; assay type: functional, cell-based
MDA-MB-231 = assay: Cytotoxicity against human MDA-MB-231 assessed as reduction in cell viability by MTT assay; assay type: functional, cell-based
RAW264.7 = assay: Antiinflammatory activity in mouse RAW264.7 cells assessed as inhibition of LPS-induced NO production at 50 uM measured after 24 hrs by Griess method; assay type: functional, cell-based; details: RAW264.7, 24 h
KB = assay: Antiproliferative activity against human KB cells assessed as reduction in cell viability after 72 hrs by SRB assay; assay type: functional
[20] = system: Mycobacterium tuberculosis; assay: Antimycobacterial activity against Mycobacterium tuberculosis H37Rv assessed as inhibition of bacterial growth by Microplate alamar blue assay; assay type: functional, organism-based
Staphylococcus aureus [21] = assay: Antibacterial activity against methicillin-resitant Staphylococcus aureus N1 assessed as reduction in bacterial growth by microbroth dilution method; assay type: functional
Plasmodium falciparum [22] = assay: Antiplasmodial activity against Plasmodium falciparum K1 assessed as reduction in parasite growth by fluorescence based assay; assay type: functional, organism-based

COc1cc2c(cc1OCc1ccccc1)C1COC3C(=O)c4ccccc4C(=O)C3C1O2 (stereo unspecified)
IC50 (MCF7 [1]): > 100 µM

COc1cc2c(cc1O)O[C@@H]1C3=C(OC[C@H]21)C(=O)c1ccccc1C3=O
IC50 [2]: 4.49 µM
IC50 (K562 [3]): 4.5 µM

COc1ccc2c(c1OC)OC1c3ccc(O[C@H]4O[C@H](CO)[C@@H](O)[C@H](O)[C@H]4O)cc3OCC21 (stereo partly specified)
Activity (BMDC): 10%

COc1ccc2c(c1)O[C@@H]1c3cc(OC)c(OC)cc3OC[C@H]21
inhibition at 72 h, 10 microg/ml [4]: 19%
IC50 (K562 [5]): 2.8 µg/mL (≈ 8.91 µM)
IC50 (Jurkat): > 10 µg/mL
Activity (HL-60 [6]): 42.6%
IC50 (MOLT-4): 45.9 µg/mL (≈ 146 µM)
IC50 (HL-60 [7]): 2.5 µg/mL (≈ 7.95 µM)
IC50 (MCF7 [8]): 8 µM
Activity (HL-60 [9]): 34.4%

O=C1c2ccccc2C(=O)C2C1OCC1c3cc4c(cc3OC12)OCO4 (stereo unspecified)
IC50 (MCF7 [1]): 29 µM

COc1ccc2c(c1CC=C(C)C)O[C@H]1c3ccc(O)cc3OC[C@@]21OC [ERYTHRIBYSSIN A]
IC50 (Staphylococcus aureus [10]): 64 µg/mL (≈ 174 µM)
IC50 (Staphylococcus aureus [11]): 32 µg/mL (≈ 86.9 µM)

COc1ccc2c(c1)O[C@@H]1c3ccc(OC)cc3OC[C@H]21
Activity (HL-60 [12]): 52.5%

COc1c(O)cc2c(c1OC)O[C@H]1c3ccc(O)cc3OC[C@@H]21
IC50 [13]: 3.8 µM

O=C1c2ccccc2C(=O)C2C1OCC1c3cc(O)c(O)cc3OC12 (stereo unspecified)
IC50 (MCF7 [1]): 115 µM

C=C/C(C)=C/c1c(O)ccc2c1OC[C@H]1c3cc(C)c(O)c(CC=C(C)C)c3O[C@@H]21
IC50 [14]: 1.52 µM

C=C(C)/C(C)=C/c1c(O)ccc2c1O[C@H]1c3ccc(O)cc3OC[C@@H]21
IC50 at 48 h [15]: 9.4 µM
IC50 at 48 h [16]: 23 µM

COc1ccc2c(c1CC=C(C)C)O[C@H]1c3ccc(OC(C)=O)cc3OC[C@@H]21
IC50 (Plasmodium falciparum [17]): 34.8 µg/mL (≈ 91.5 µM)

COc1ccc2c(c1OC)OC1c3ccc(O)cc3OCC21 (stereo unspecified)
Activity (BMDC): 45%

COc1c(O)cc2c(c1CC=C(C)C)O[C@H]1c3ccc(O)cc3OC[C@@H]21
IC50 [14]: 1.44 µM

CC1(C)Oc2cc3c(cc2CC1O)[C@@H]1Oc2cc(O)ccc2[C@@H]1CO3 (stereo partly specified) [RAUTANDIOL A]
IC50 (A549): > 5 µg/mL

COc1ccc2c(c1O)OC1c3ccc(O)c(OC)c3OCC21 (stereo unspecified)
IC50 [18]: 30.5 µM
Activity [19]: 52.5%

COc1cc(Br)c2c(c1CC=C(C)C)O[C@H]1c3ccc(O)cc3OC[C@@H]21
IC50 (Plasmodium falciparum [17]): 12.9 µg/mL (≈ 30.9 µM)

O=C1C2=C(C(=O)c3ccccc31)[C@H]1Oc3cc(OCc4ccccc4)c(OCc4ccccc4)cc3[C@H]1CO2
IC50 [2]: 3.64 µM
IC50 (K562 [3]): 3.46 µM

O=c1cccc2n1C[C@@H]1C[C@H]2CN(Cc2c(O)ccc3c2OC[C@H]2c4cc5c(cc4O[C@@H]32)OCO5)C1
IC50 (HeLa): 24.3 µM
IC50 (MDA-MB-231): 48.9 µM

CC/C=C/OC[C@H]1O[C@H](Oc2ccc3c(c2)OC[C@H]2c4ccc(OC)c(OC)c4O[C@@H]32)[C@H](O)[C@@H](O)[C@@H]1O
EC50 (RAW264.7): 19.2 µM

CC(C)=CC[C@]12COc3c(cc(O)c4c3C=CC(C)(C)O4)[C@H]1Oc1cc3c(cc12)OCO3
Activity (KB): 56%

COc1cc2c(cc1O)OC1C2COC2C(=O)c3ccccc3C(=O)C21 (stereo unspecified)
IC50 (MCF7 [1]): 5.3 µM

COc1ccc2c(c1CC=C(C)C)O[C@H]1c3cc(CC=C(C)C)c(O)cc3OC[C@@]21O [ERYSTAGALLIN A]
IC50 [20]: 12.5 µg/mL (≈ 29.6 µM)
MIC (Staphylococcus aureus [21]): 0.78 µg/mL (≈ 1.85 µM)
IC50 (Plasmodium falciparum [22]): 3.8 µg/mL (≈ 8.99 µM)

O=C1c2ccccc2C(=O)C2C1OCC1c3cc(OCc4ccccc4)c(OCc4ccccc4)cc3OC12 (stereo unspecified)
IC50 (MCF7 [1]): > 100 µM

COc1ccc2c(c1)O[C@@H]1c3ccc(O)cc3OC[C@H]21
Activity (HL-60 [12]): 57.4%

COc1cc2c(cc1OCc1ccccc1)OC1C2COC2C(=O)c3ccccc3C(=O)C21 (stereo unspecified)
IC50 (MCF7 [1]): 27.7 µM
